The results in this text go back to US12590083B2, “Inhibitors of spinster homolog 2 (SPNS2) for use in therapy” (University of Virginia Patent Foundation, priority 2019, dated 2026).

Where a name gives a salt, the structure may show the parent alone.

This test addresses T1, human SPNS2 (Homo sapiens, UniProt Q8IVW8).
T1 construct: expressed in transfected cells; host or cells: Saccharomyces cerevisiae strain with forced expression of a mammalian SphK and human SPNS2
T1 sequence (Q8IVW8 1-549): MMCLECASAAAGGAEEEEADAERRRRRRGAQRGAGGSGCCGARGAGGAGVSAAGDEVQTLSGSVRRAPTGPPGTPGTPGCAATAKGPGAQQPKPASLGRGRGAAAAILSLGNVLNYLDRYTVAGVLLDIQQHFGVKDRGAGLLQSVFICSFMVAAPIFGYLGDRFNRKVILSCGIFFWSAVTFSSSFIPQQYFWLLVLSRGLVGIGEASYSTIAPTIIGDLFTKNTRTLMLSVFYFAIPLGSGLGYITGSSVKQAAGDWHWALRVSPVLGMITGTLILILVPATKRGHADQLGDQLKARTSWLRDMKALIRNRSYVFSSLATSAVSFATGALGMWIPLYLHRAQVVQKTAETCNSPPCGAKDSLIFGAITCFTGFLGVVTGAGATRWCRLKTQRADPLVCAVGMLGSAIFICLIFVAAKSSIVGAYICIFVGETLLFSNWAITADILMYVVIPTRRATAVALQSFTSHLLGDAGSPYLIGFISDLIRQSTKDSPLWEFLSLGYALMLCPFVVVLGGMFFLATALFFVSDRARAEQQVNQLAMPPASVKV
Briefly: S1P transporter assay: growth of S. cerevisiae strain with forced expression of a mammalian SphK and human SPNS2. The conditions noted are these: in vitro inhibition of SPNS2; growth of S. cerevisiae strain expressing mammalian SphK and human SPNS2; compounds as their pharmaceutical salts. Type of test: cell-based. The source says:
Transporter assays are vectorial and, therefore, require measurement of the transported analyte in different compartments. The assay of S1P transporters is problematic because S1P is exported, but not imported, by SPNS2, which obviates measuring uptake of mass- or radio-labeled S1P into transporter-expressing cells.
To assay for SPNS2 inhibitor hits, we took advantage of the growth inhibitory effects of excessive levels of phosphorylated Long Chain Base (phospho-LCB) levels on the budding yeast, S. cerevisiae (Kharel Y, et al. Saccharomyces cerevisiae as a platform for assessing sphingolipid lipid kinase inhibitors. PLoS One 13, e0192179 (2018) PMC5908134). Yeast lack the desaturase that converts dihydroceramide to ceramide and, therefore, have neither sphingosine nor S1P. Rather, yeast have the reduced form, dihydrosphingosine, and the 4-hydroxyl analog, phytosphingosine and their respective phosphates. Like all eukaryotes, the yeast synthesizes (via LCB kinases (SphKs)) and degrades (via phospho-LCB lyase and phosphatase) phospho-LCBs, (dhS1P, phytoS1P). Yeast lack phospho-LCB transporters such as SPNS2, which are found only in vertebrates. To assess inhibition of SPNS2 in vitro, we used a strain of S. cerevisiae wherein expression of a mammalian SphK and human SPNS2 were forced. SPNS2 inhibitors decrease the growth of this strain. Table 2 below presents in vitro inhibition data against SPNS2 for exemplary compounds, presented here as their pharmaceutical salts, of the disclosure (A≤2 μM, B>2 μM).
On to `CCCCCCCCNc1ccc(-c2noc([C@@H]3CCN(C(=N)N)C3)n2)cn1` [Compound 15b, (R)-3-(3-(6-(octylamino)pyridin-3-yl)-1,2,4-oxadiazol-5-yl)pyrrolidine-1-carboximidamide hydrochloride], for which the half-inhibitory concentration (IC50) was > 2000 nM.
As for `C/C(=N\OCc1ccc(F)cc1)c1ccc(-c2noc([C@@H]3CCN(C(=N)N)C3)n2)cc1` [Compound 40m, (R)-3-(3-(4-(1-(((4-fluorobenzyl)oxy)imino)ethyl)phenyl)-1,2,4-oxadiazol-5-yl)pyrrolidine-1-carboximidamide hydrochloride], the IC50 is > 2000 nM.
Regarding `CCCCCCCCCCc1ccc(-c2noc(CC3CNC3)n2)cc1` [Compound 5j, 5-(azetidin-3-ylmethyl)-3-(4-decylphenyl)-1,2,4-oxadiazole 2,2,2-trifluoroacetate], the IC50 was ≤ 2000 nM.
For `N=C(N)N1CC[C@@H](c2nc(-c3ccc(Nc4cc(Br)ccc4Br)nc3)no2)C1` [Compound 15f, (R)-3-(3-(6-((2,5-dibromophenyl)amino)pyridin-3-yl)-1,2,4-oxadiazol-5-yl)pyrrolidine-1-carboximidamide hydrochloride], the IC50 was > 2000 nM.
Take `N=C(N)N1CC[C@@H](c2nc(-c3ccc(N4CCCCC4)nc3)no2)C1` [Compound 15a, (R)-3-(3-(6-(piperidin-1-yl)pyridin-3-yl)-1,2,4-oxadiazol-5-yl)pyrrolidine-1-carboximidamide hydrochloride]: the IC50 was > 2000 nM.
For `N=C(N)N1CC(c2nc(-c3ccc(OCCCc4ccccc4)c(C(F)(F)F)c3)no2)C1` [Compound 23i, 3-(3-(4-(3-phenylpropoxy)-3-(trifluoromethyl)phenyl)-1,2,4-oxadiazol-5-yl)azetidine-1-carboximidamide hydrochloride] the value was > 2000 nM; for `N=C(N)N1CCC[C@@H](c2nc(-c3ccc(Nc4ccc(OC(F)(F)F)c(F)c4)nc3)no2)C1` [Compound 15c, (R)-3-(3-(6-((3-fluoro-4-(trifluoromethoxy)phenyl)amino)pyridin-3-yl)-1,2,4-oxadiazol-5-yl)piperidine-1-carboximidamide hydrochloride], > 2000 nM; for `CCCCCCCCCCOc1ccc(-c2noc([C@@H]3CCCNC3)n2)cc1C(F)(F)F` [Compound 21f, (R)-3-(4-(decyloxy)-3-(trifluoromethyl)phenyl)-5-(piperidin-3-yl)-1,2,4-oxadiazole hydrochloride], > 2000 nM.
Consider `Brc1ccc(Br)c(Nc2ccc(-c3noc([C@@H]4CCNC4)n3)cn2)c1` [Compound 13f, (R)—N-(2,5-dibromophenyl)-5-(5-(pyrrolidin-3-yl)-1,2,4-oxadiazol-3-yl)pyridin-2-amine hydrochloride], for which the IC50 is > 2000 nM.
For the compound `CC(C)(C)c1cccc(Nc2ccc(-c3noc([C@@H]4CCNC4)n3)cn2)c1` [Compound 13g, (R)—N-(3-(tert-butyl)phenyl)-5-(5-(pyrrolidin-3-yl)-1,2,4-oxadiazol-3-yl)pyridin-2-amine hydrochloride], the IC50 was > 2000 nM.
As to `C/C(=N\OCc1ccccc1)c1ccc(-c2noc([C@@H]3CCN(C(=N)N)C3)n2)cc1` [Compound 40g, (R)-3-(3-(4-(1-((benzyloxy)imino)ethyl)phenyl)-1,2,4-oxadiazol-5-yl)pyrrolidine-1-carboximidamide hydrochloride], the half-inhibitory concentration (IC50) is > 2000 nM.
For `CCCCCCCCCCc1ccc(-c2noc(CC3CN(C(=N)N)C3)n2)cc1` [Compound 7i], the IC50 was ≤ 2000 nM.
As for `CCCCCCCCCCc1ccc(-c2noc([C@@H]3CCCN(C(=N)N)C3)n2)cc1` [Compound 7h, (R)-amino(3-(3-(4-decylphenyl)-1,2,4-oxadiazol-5-yl)piperidin-1-yl)methaniminium chloride], the IC50 was > 2000 nM.
For `CCCCCCCCCc1ccc(-c2noc(C3CN(C(=N)N)C3)n2)cc1C(F)(F)F` [Compound 30a, 3-(3-(4-nonyl-3-(trifluoromethyl)phenyl)-1,2,4-oxadiazol-5-yl)azetidine-1-carboximidamide hydrochloride] the value was ≤ 2000 nM.
